We go through 7 compounds from patent US11111240B2, “Sultam compound and application method thereof” (Chia Tai Tianqing Pharmaceutical Group Co., Ltd., priority 2016, dated 2021).

Like-named read-outs stand apart in the source and are kept apart here.

As a reminder, the IC50 is the concentration that gives 50% inhibition. Broadly, the Cmax is the maximum level reached in the sampled fluid or tissue. The Tmax is the time at which the peak concentration occurs.

The subject of data set [1] is U87/IDH1 (R132H) cells. The data set can be described thus: Inhibitory activity on IDH1-mutated U87 cells (2-HG determination). It counts as cell-based. Conditions: Homo sapiens, U-87 MG.
Description: In the presence of 2-HG, phosphoglycerate dehydrogenase PHGDH can reduce NAD to NADPH, and the latter may be quantitatively determined by lipoamide dehydrogenase and the substrate thereof, resazurin.
U87 cell is a human glioblastoma cell line with an IDH1 mutation (R132H).
Cells was digested with trypsin, and inoculated into a 6-well plate at a density of 5×10^5, and cultured overnight in an incubator at 37° C. […] Culture medium of each sample was sucked out and centrifuged at 1000 rpm for 10 min. The supernatant was sucked out to detect the content of 2-HG therein. Additionally, cells were washed with PBS (phosphate buffered saline), digested with trypsin and collected. After the collected cells were washed with PBS for one time, the determination of intracellular 2-HG content was performed.
The method for determining the intracellular 2-HG was as follows: cells were re-suspended with 300 μL reaction buffer (40 mM Tris-HCl, pH 8.5; 150 mM NaCl) and disrupted by ultrasonication. They were centrifuged for 10 min at 12,000 rpm and 4° C. to remove insoluble substances. 25 μL supernatant was sucked out to determine the protein concentration by a BCA kit. […]
The measured fluorescence values were compared after being corrected with the protein concentrations of the corresponding samples.
The nature of data set [2]: Pharmacokinetic experiments in male SD rats, single peroral administration. The format is in vivo, rat. Conditions: for Cmax / Tmax / AUC(0-inf) / half-life: plasma; for AUC(0-inf): read-out: AUCINF—obs. The method, then: Male SD rats were from Beijing Vital River Laboratory Animal Technology Co., Ltd., and divided into groups (3 rats per group). The rats were intragastrically administered with the test sample suspension (5 mg/kg) via a single peroral administration, respectively. The animals were fasted overnight before this study. The fasting time period was from 10 hours before administration to 4 hours after administration. Blood samples were taken at 0.25, 0.5, 1, 2, 4, 6, 8 and 24 hours after administration. After the rats were anesthetized with isoflurane using an anesthesia machine for small animal, and then 0.3 mL whole blood samples were taken from the fundus venous plexus. The blood samples were placed in heparin anticoagulant tubes, and centrifuged for 5 min at 4° C. and 4000 rpm. The plasma was transferred to centrifuge tubes, and stored at −80° C. until analysis. The samples in plasma were extracted through protein precipitation. The liquid extract was analyzed by LC-MS/MS, wherein HPLC conditions were as follows: flow rate 0.4 mL/min; mobile phase A: water/formic acid (99.9/0.1, v/v); mobile phase B: acetonitrile/formic acid (99.9/0.1, v/v); injection volume: 5 μL; column temperature: RT; autosampler temperature: RT; run time: 2.5 min.

For data set [3], the target named is IDH1 (R132C) (Homo sapiens (Human), UniProt O75874, R132C). Nature of the data set: Enzyme assay, IDH1m inhibition (NADPH decrease, diaphorase/resazurin). The format is biochemical. The note with it: 40 nM enzyme, 16 h pre-incubation at 23° C. From the text:
(§1) Resazurin is a traditional redox dye, and after a redox reaction, it can be reduced from a blue resazurin without fluorescence to a pink fluorescent substance, resorufin, which can be measured and quantified with relative fluorescence unit (RFU) of fluorophotometer (Ex=530-570 nm, Em=590-620 nm). At present, resazurin is widely used for determining the viability of bacteria, cells, etc. and the enzyme activity detection of oxidoreductase. We detected the decrease of cofactor NADPH to determine the inhibitory activity of a compound against IDH1m and detected the generation of cofactor NADPH to determine the inhibitory activity of a compound against IDH WT. The compound was pre-incubated with IDH1m and NADPH, and then the reaction was initiated by adding α-KG and performed for certain time under a linear condition. Then, diaphorase (lipoamide dehydrogenase) and the corresponding substrate resazurin were added thereto for detection. Lipoamide dehydrogenase terminated the IDH1m reaction by decreasing the available cofactor NADPH, which oxidized NADPH to NADP, and reduced resazurin to high fluorescent resorufin. The amount of the remaining cofactor NADPH after a specific reaction time was quantified via an easily detectable fluorophore.
(§2) The specific operation was as follows: 2.5 μl of the compound diluted in a 3-fold gradient was added to a 384-well plate, followed by adding 5 μl of the reaction buffer (20 mM Tris-HCl, pH 7.5; 150 mM NaCl; 10 mM MgCl2; 0.4 mg/mL BSA (Bovine Serum Albumin) and 2 mM DTT (dithiothreitol)) containing 40 nM IDH1 (R132H/R132C) and 20 μM NADPH. Then, the above test mixture was incubated at 23° C. for 16 hours, and then 2.5 μl of the reaction buffer containing 4 mM α-KG was added to initiate the reaction. After they were incubated for 60 minutes at room temperature, 5 μl of the termination mixture (0.4 U/ml diaphorase and 20 μM resazurin) formulated with the reaction buffer was added to convert resazurin to resorufin, so as to measure the amount of the remaining NADPH. After incubating at 23° C. for 10 minutes, fluorescence values were determined through Flexstation 3 at Ex535/Em595. The enzyme activity of each compound was respectively determined at 12 concentrations, and the data were calculated using the software GraFit6.0 (Erithacus Software) to obtain the IC50 value of each compound.
(The colour change of resazurin is a common sign of viable cells or microbes.)

Data set [4] has as its target IDH1 (R132H) (Homo sapiens (Human), UniProt O75874, R132H). The data set is described as above. It counts as biochemical. The note with it: 40 nM enzyme, 16 h pre-incubation at 23° C.
Description: as §1, §2

[5] abbreviates: rat, male SD rats, oral 5 mg/kg, 0.5% MC, 0.2% Tween80.

Chain of IDH1 (R132H) (O75874 whole entry R132H): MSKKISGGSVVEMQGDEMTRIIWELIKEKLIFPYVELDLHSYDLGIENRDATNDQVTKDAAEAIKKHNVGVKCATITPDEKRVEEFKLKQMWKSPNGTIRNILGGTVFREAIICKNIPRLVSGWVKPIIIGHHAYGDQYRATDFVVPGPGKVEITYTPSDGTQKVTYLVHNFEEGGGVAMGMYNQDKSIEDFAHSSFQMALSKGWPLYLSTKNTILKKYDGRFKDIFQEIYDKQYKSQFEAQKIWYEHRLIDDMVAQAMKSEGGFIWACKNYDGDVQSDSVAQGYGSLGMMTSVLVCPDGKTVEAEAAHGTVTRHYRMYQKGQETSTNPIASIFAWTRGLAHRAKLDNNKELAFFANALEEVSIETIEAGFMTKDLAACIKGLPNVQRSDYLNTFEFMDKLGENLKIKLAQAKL
Chain of IDH1 (R132C) (O75874 whole entry R132C): as the sequence (O75874 whole entry R132H) above, with H132C counted along it

In turn, `N#Cc1ccnc(N2C(=O)CC[C@H]2C(=O)N(c2cncc(F)c2)[C@H](C(=O)NC2CC(F)(F)C2)c2ccccc2Cl)c1` [AG-120, ivosidenib, reference compound] yielded an IC50 in data set [1] of 46 nM. In addition, in data set [2] (setting [5]), the Cmax came to 719 ng/mL, the Tmax came out at 0.67 h and the AUC(0-inf) worked out at 6320 ng·h/mL. Moreover, the half-life in data set [2] (rat, male SD rats, oral 5 mg/kg, 0.5% MC, 0.2% Tween80, read-out: T1/2 (converted)) is 3.28 h.
With `N#Cc1ccnc(N2[C@H](C(=O)N(c3cncc(F)c3)[C@H](C(=O)NC3CC(F)(F)C3)c3ccccc3Cl)CCS2(=O)=O)c1` [Example 2, (S)—N—((S)-1-(2-chlorophenyl)-2-((3,3-difluorocyclobutyl)amino)-2-oxoethyl)-2-(4-cyanopyridin-2-yl)-N-(5-fluoropyridin-3-yl)-isothiazolidine-3-carboxamide 1,1-dioxide], the IC50 in data set [3] is < 20 nM; in data set [4], < 20 nM; in data set [1], 6.7 nM.
On to `N#Cc1ccnc(N2[C@H](C(=O)N(c3cccc(F)c3)[C@H](C(=O)NC3CC(F)(F)C3)c3ccccc3Cl)CCS2(=O)=O)c1` [Example 12, (S)—N—((S)-1-(2-chlorophenyl)-2-((3,3-difluorocyclobutyl)amino)-2-oxoethyl)-2-(4-cyanopyridin-2-yl)-N-(3-fluorophenyl)-isothiazolidine-3-carboxamide 1,1-dioxide], for which, in data set [3], the IC50 is < 20 nM. Besides, the half-maximal inhibitory concentration (IC50) in data set [4] was < 20 nM. In data set [2] (male SD rats, oral 5 mg/kg, 0.5% MC, 0.2% Tween80), this compound displayed a T1/2 of 10.7 h. In addition, in data set [2] (male, SD, 5 mg/kg, rat, oral, read-out: half-life (converted)), the half-life is 10.7 h. For the same compound, in data set [2] (setting [5]), the Cmax stood at 556 ng/mL, the Tmax was found to be 4 h and the AUC(0-inf) stood at 10600 ng·h/mL. The “drug exposure in plasma compared with AG-120” value in data set [2] (rat, same oral dose) was “far higher than that of AG-120”.
As for `N#Cc1ccnc(N2[C@H](C(=O)N(c3cccc(F)c3)[C@H](C(=O)NC3CC(F)(F)C3)c3ccccc3Cl)CNS2(=O)=O)c1` [Example 24, (S)—N—((S)-1-(2-chlorophenyl)-2-((3,3-difluorocyclobutyl)amino)-2-oxoethyl)-2-(4-cyanopyridin-2-yl)-N-(3-fluorophenyl)-1,2,5-thiadiazolidine-3-carboxamide 1,1-dioxide], in data set [4], the half-inhibitory concentration (IC50) was < 20 nM.
`CN1C[C@@H](C(=O)N(c2cccc(F)c2)C(C(=O)NC2CC(F)(F)C2)c2ccccc2Cl)N(c2cc(C#N)ccn2)S1(=O)=O` (stereo partly drawn) [Example 25, (3S)—N-(1-(2-chlorophenyl)-2-((3,3-difluorocyclobutyl)amino)-2-oxoethyl)-2-(4-cyanopyridin-2-yl)-N-(3-fluorophenyl)-5-methyl-1,2,5-thiadiazolidine-3-carboxamide 1,1-dioxide] yielded an IC50 in data set [4] of 20 nM.
On to `N#Cc1ccnc(N2[C@H](C(=O)N(c3cccc(S(N)(=O)=O)c3)C(C(=O)NC3CCCCC3)c3ccccc3Cl)CCS2(=O)=O)c1` (stereo partly drawn) [Example 26, (3S)—N-(1-(2-chlorophenyl)-2-(cyclohexylamino)-2-oxoethyl)-2-(4-cyanopyridin-2-yl)-N-(3-aminosulfonylphenyl)-isothiazolidine-3-carboxamide 1,1-dioxide], for which the IC50 in data set [4] is < 20 nM.
For `N#Cc1ccnc(N2[C@H](C(=O)N(c3cc(F)c[n+]([O-])c3)[C@H](C(=O)NC3CC(F)(F)C3)c3ccccc3Cl)CCS2(=O)=O)c1` [Example 27, 3-((S)—N—((S)-1-(2-chlorophenyl)-2-((3,3-difluorocyclobutyl)amino)-2-oxoethyl)-2-(4-cyanopyridin-2-yl)-1,1-dioxoisothiazolidine-3-carboxamido)-5-fluoropyridine-1-oxide], in data set [4], the IC50 was 20 nM.
